Measurements reported in publication PMC2528830 (British Journal of Pharmacology, 2008).

Columns and labels:
GPR119 [1] = biological target: T1, GPR119 (Homo sapiens, UniProt Q8TDV5); assay: cAMP accumulation in HEK293-GPR119 vs untransfected cells; format: cell-based
T1 sequence (Q8TDV5 1-335): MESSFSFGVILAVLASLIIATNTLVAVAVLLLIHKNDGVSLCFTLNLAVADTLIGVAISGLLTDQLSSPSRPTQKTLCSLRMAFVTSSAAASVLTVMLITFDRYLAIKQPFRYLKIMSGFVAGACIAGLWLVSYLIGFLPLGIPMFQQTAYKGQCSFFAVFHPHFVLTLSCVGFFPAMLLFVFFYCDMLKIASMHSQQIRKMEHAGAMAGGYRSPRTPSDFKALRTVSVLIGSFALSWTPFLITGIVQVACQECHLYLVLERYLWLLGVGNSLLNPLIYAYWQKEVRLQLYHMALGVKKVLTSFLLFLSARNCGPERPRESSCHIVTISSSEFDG

GPR119 [2] = biological target: T1, GPR119; assay: insulin secretion at […] in RINm5f-GPR119 vs parental RINm5f cells; format: cell-based

SMILES	EC50 (GPR119 [1]) [µM]	insulin secretion at 10 μM in RINm5f-GPR119 vs parental RINm5f cells (GPR119 [2])
CCCC[C@H]1CC[C@H](c2nc(-c3ccncc3)no2)CC1 [PSN375963]	13.9	–
CCCCCCCC/C=C\CCCCCCCC(=O)NCCO [oleoylethanolamide]	–	RINm5f cells transfected with human GPR119 (RIN-119 cells) responded to OEA and had an increased response to OLPC
